“And” between values parts separate entries of the source, which are not always exact repeats. Equal entries are not always repeated. Where two headings read alike, the source gives them in different places.
Experiments:
Assay type in all cases: cell-based
[1] = system: Balamuthia mandrillaris trophozoites; experiment: CellTiter-Glo 2.0 trophocidal assay, B. mandrillaris; settings: for IC50: 72 h, CTG method, duplicate twofold serial dilutions from 10 µM, mean ± SD; for Selectivity Index (A549 IC50/B. mandrillaris IC50): SI = (IC50 A549)/(IC50 Amoeba); for potency against B. mandrillaris, in words: dose-response, CTG
Protocol: Pathogenic Balamuthia mandrillaris (CDC:[…]; American Type Culture Collection (ATCC) 50209), a GAE isolate, isolated from a pregnant baboon at the San Diego Zoo in 1986 was donated by Luis Fernando […] University, Mexico [43]. Trophozoites were routinely grown axenically in Balamuthia mandrillaris Itson (BMI) media at 37 °C, 5% CO2 in vented 75 cm^2 tissue culture flasks (Olympus, El Cajon, CA, USA), until the cells were 80-90% confluent. For sub-culturing, 0.25% Trypsin-EDTA (Gibco, Gaithersburg, MD, USA) cell detachment reagent was used to detach the cells from the culture flasks. The cells were collected by centrifugation at 4000 rpm at 4 °C. Complete BMI media is produced by the addition of 10% fetal bovine serum (FBS) and 125 μg of penicillin/streptomycin antibiotics. The trophocidal activity of compounds was assessed using the CellTiter-Glo 2.0 luminescent viability assay (Promega, Madison, WI, USA), as previously described. Trophozoites were routinely cultured as described above and only logarithmic trophozoites were used. […] Inhibitors were assessed for percent inhibition using the criteria of ≤33% growth inhibition (no inhibition), 33-67% growth inhibition (moderate inhibition), and ≥67% growth inhibition (strong inhibition). […] We used this process to reduce the number of potential false positives. […] All assays were incubated at each of the parasites' representative growth temperatures, described above, for 72 h. At the 72 h time point, 25 μL of CellTiter-Glo 2.0 reagent was added to all wells of the 96-well plates using the Biomek NX^P automated workstation. The plates were protected from light and contents were mixed using an orbital shaker at 300 rpm at room temperature for 2 min to induce cell lysis. After shaking, the plates were equilibrated at room temperature for 10 min to stabilize the luminescent signal. The adenosine triphosphate (ATP) luminescent signal (relative light units; RLUs) was measured at 490 nm with a SpectraMax I3X plate reader (Molecular Devices, Sunnyvale, CA, USA). Drug inhibitory concentration (IC50) curves were generated using total ATP RLUs, where controls were calculated as the average of replicates using the Levenberg-Marquardt algorithm, using DMSO as the normalization control, as defined in Collaborative Drug Discovery Inc. (CDD) Vault (Burlingame, CA, USA). Values reported are from a minimum of two biological replicates with standard deviations.

[2] = system: A549 human lung carcinoma cells; experiment: MTS cytotoxicity counter-screen of reconfirmed hits
Protocol: Cytotoxicity of the reconfirmed hits was determined by using the CellTiter 96® AQueous One Solution Cell Proliferation Assay (Promega, Madison, WI) on A549 human lung carcinoma cells. A549 cells were seeded at a concentration of 1.6 × 10^4 cells/mL in 96-well tissue culture plates (Corning, NY, USA), in the presence of serially diluted active hits against B. mandrillaris, N. fowleri, or A. castellanii. Positive control wells contained cells and media; negative control wells contained 0.1% DMSO. Cells were grown in F12K medium supplemented with 10% FBS and 1% gentamycin (all supplied from Fisher Scientific, Atlanta, GA, USA). The inhibitor concentration started at 10 µM and was diluted in doubling dilutions to assess cytotoxicity in comparison to the respective free-living amoeba. Total volume of each well was 100 µL and plates were incubated at 37 °C, 5% CO2 for 72 h. Next, 4 h before the time-point, 20 µL of MTS (Promega, Madison, WI, USA) was added to each well. Inhibition of A549 growth was assessed at the 72 h time-point measuring the optical density (OD) values at 490 nm using a SpectraMax I3X plate reader (Molecular Devices, Sunnyvale, CA, USA). Curve fitting using non-linear regression was carried out using the average of replicates and the Levenberg–Marquardt algorithm, using DMSO as the normalization control, as defined in CDD Vault (Burlingame, CA, USA).

[3] = system: Naegleria fowleri trophozoites; experiment: CellTiter-Glo 2.0 trophocidal assay, N. fowleri; settings: CTG method, 72 h, duplicate twofold serial dilutions from 10 µM, mean ± SD; read-out: N. fowleri Mean IC50 (µM) ± SD
Protocol: Pathogenic Naegleria fowleri (ATCC 30215), a clinical isolate obtained from a child in Adelaide, Australia, that died of PAM in 1969 was previously purchased from the American Type Culture Collection (ATCC). Trophozoites were routinely grown axenically at 34 °C in Nelson’s complete medium (NCM) in non-vented 75 cm^2 tissue culture flasks (Olympus, El Cajon, CA, USA), until the cells were 80–90% confluent. For sub-culturing, cells were placed on ice to detach the cells from the culture flasks. The cells were collected by centrifugation at 4000 rpm at 4 °C. Complete NCM media is produced by the addition of 10% FBS and 125 μg of penicillin/streptomycin antibiotics.
The trophocidal activity of compounds was assessed using the CellTiter-Glo 2.0 luminescent viability assay (Promega, Madison, WI, USA), as previously described. Trophozoites were routinely cultured as described above and only logarithmic trophozoites were used. In brief, B. mandrillaris, N. fowleri, or A. castellanii trophozoites cultured in their corresponding media were seeded at 16,000, 3000, or 1440 cells/well into white 96-well plates (Costar 3370), respectively. Initially all compounds were assessed in a single-point drug screen at 10 and 1 μM, as previously described. […] Control wells were supplemented with 0.1% (10 μM screening plate) or 0.01% (1 μM screening plate) DMSO, as the negative controls, or 12.5 μM of chlorhexidine, as the positive control. Following the single-point assays at 10 and 1 µM, we prioritized compounds for progression to IC50 determinations. […] We used this process to reduce the number of potential false positives. Drugs were cherry-picked, dissolved in the media specific to each parasite, and assessed in twofold serial dilutions from the highest concentration of 10 μM. All assays were incubated at each of the parasites’ representative growth temperatures, described above, for 72 h. At the 72 h time point, 25 μL of CellTiter-Glo 2.0 reagent was added to all wells of the 96-well plates using the Biomek NX^P automated workstation. The plates were protected from light and contents were mixed using an orbital shaker at 300 rpm at room temperature for 2 min to induce cell lysis. After shaking, the plates were equilibrated at room temperature for 10 min to stabilize the luminescent signal. The adenosine triphosphate (ATP) luminescent signal (relative light units; RLUs) was measured at 490 nm with a SpectraMax I3X plate reader (Molecular Devices, Sunnyvale, CA, USA). Drug inhibitory concentration (IC50) curves were generated using total ATP RLUs, where controls were calculated as the average of replicates using the Levenberg–Marquardt algorithm, using DMSO as the normalization control, as defined in Collaborative Drug Discovery Inc. (CDD) Vault (Burlingame, CA, USA). Values reported are from a minimum of two biological replicates with standard deviations.

[4] = system: Acanthamoeba castellanii trophozoites; experiment: CellTiter-Glo 2.0 trophocidal assay, A. castellanii; settings: for IC50: CTG method, 72 h, duplicate twofold serial dilutions from 10 µM, mean ± SD; for potency against A. castellanii, in words: dose-response, CTG; for Selectivity Index (A549 IC50/A. castellanii IC50): SI = (IC50 A549)/(IC50 Amoeba)
Protocol: This isolate was also purchased from ATCC. Trophozoites were routinely grown axenically at 27 °C in Protease Peptone-Glucose Media (PG) in non-vented 75 cm^2 tissue culture flasks (Olympus, El Cajon, CA, USA), until the cells were 80–90% confluent. For sub-culturing, cells were mechanically harvested to detach the cells from the culture flasks. The cells were collected by centrifugation at 4000 rpm at 4 °C.
The trophocidal activity of compounds was assessed using the CellTiter-Glo 2.0 luminescent viability assay (Promega, Madison, WI, USA), as previously described. Trophozoites were routinely cultured as described above and only logarithmic trophozoites were used. […] Initially all compounds were assessed in a single-point drug screen at 10 and 1 μM, as previously described. […] We used this process to reduce the number of potential false positives. Drugs were cherry-picked, dissolved in the media specific to each parasite, and assessed in twofold serial dilutions from the highest concentration of 10 μM. All assays were incubated at each of the parasites’ representative growth temperatures, described above, for 72 h. At the 72 h time point, 25 μL of CellTiter-Glo 2.0 reagent was added to all wells of the 96-well plates using the Biomek NX^P automated workstation. The plates were protected from light and contents were mixed using an orbital shaker at 300 rpm at room temperature for 2 min to induce cell lysis. After shaking, the plates were equilibrated at room temperature for 10 min to stabilize the luminescent signal. The adenosine triphosphate (ATP) luminescent signal (relative light units; RLUs) was measured at 490 nm with a SpectraMax I3X plate reader (Molecular Devices, Sunnyvale, CA, USA). Drug inhibitory concentration (IC50) curves were generated using total ATP RLUs, where controls were calculated as the average of replicates using the Levenberg–Marquardt algorithm, using DMSO as the normalization control, as defined in Collaborative Drug Discovery Inc. (CDD) Vault (Burlingame, CA, USA). Values reported are from a minimum of two biological replicates with standard deviations.

[5] = Homo sapiens, A549, MTS assay, 72 h, doubling dilutions from 10 µM, read-out: A549 Mean IC50
[6] = MTS assay, 72 h, doubling dilutions from 10 µM, read-out: A549 Mean IC50

Structure (SMILES)	IC50 [1]	IC50 [2, 5]	IC50 [4]	IC50 [2, 6]	other results
O=C(/C=C\n1cnc(-c2cc(C(F)(F)F)cc(C(F)(F)F)c2)n1)NNc1cnccn1 [Selinexor]	9.2 ± 1.13 µM	> 10 µM			IC50 ([1]; Balamuthia mandrillaris): ≤ 10 µM; Selectivity Index (A549 IC50/B. mandrillaris IC50) [1]: ≥1.09
CN1CCN(Cc2ccc(-c3cnc4[nH]cc(-c5ccc6[nH]ccc6c5)c4c3)cc2)CC1 [URMC-099-C]	5.35 ± 1.63 µM	4.2 µM			IC50 ([1]; Balamuthia mandrillaris): ≤ 10 µM; Selectivity Index (A549 IC50/B. mandrillaris IC50) [1]: 0.79
Clc1cc(Cl)c2c(c1)CCc1ccccc1C2n1ccnc1 (stereo not drawn) [Eberconazole]	> 10 µM		3.7 ± 1.13 µM	> 10 µM	IC50 [3]: 1.22 ± 0.66 µM; IC50 ([4]; listed as eberconazole): ≤ 10 µM
O[C@@](Cn1cnnn1)(c1ccc(F)cc1F)C(F)(F)c1ccc(-c2ccc(OCC(F)(F)F)cc2)cn1 [MMV1634386]	> 10 µM		0.16 ± 0.09 µM	> 10 µM	IC50 [3]: 2.4 ± 1.7 µM; potency against A. castellanii, in words [4]: nanomolar potency
Cc1nc2ccc(Oc3ccccc3)cc2c2c1CCN2CCc1ccccc1 [MMV1634399]	0.73 ± 0.28 µM			> 10 µM	potency against B. mandrillaris, in words [1]: nanomolar potency
Clc1ccc(Cn2c(CN3CCCC3)nc3ccccc32)cc1 [Clemizole]	8.95 ± 1.48 µM	> 10 µM			IC50 ([1]; Balamuthia mandrillaris): ≤ 10 µM; Selectivity Index (A549 IC50/B. mandrillaris IC50) [1]: ≥1.12
Cc1ccc(N2CCC(CCOc3ccc(S(C)(=O)=O)cc3)CC2)nn1 [MMV1634394]	≤ 10 µM and 8.05 µM			> 10 µM	
O=C1C=C(c2ccccc2)S(=O)(=O)c2ccccc21 [1,1-dioxide 1-thioflavone]	0.37 ± 0.01 µM		> 10 µM	> 10 µM	potency against B. mandrillaris, in words [1]: nanomolar potency; IC50 [3]: 5 µM
C(=C\c1nc2ccccc2[nH]1)/c1ccc2c(c1)OCO2 [MMV1582495]	0.54 ± 0.04 µM			> 10 µM	potency against B. mandrillaris, in words [1]: nanomolar potency
O=[N+]([O-])/C(Br)=C/c1ccc(Br)o1 [Furvina]			4.2 ± 0.85 µM	> 10 µM	IC50 ([4]; listed as furvina): ≤ 10 µM
CCc1nc(N)nc(N)c1C#CC(C)c1cc(OC)cc(-c2ccncc2)c1 (stereo not drawn) [MMV1580844]	0.53 ± 0.11 µM			> 10 µM	potency against B. mandrillaris, in words [1]: nanomolar potency
O=C(/C(=C/c1ccc(Cl)cc1Cl)n1ccnc1)c1ccc(Cl)cc1 [MMV1634491]	> 10 µM			> 10 µM	IC50 [3]: 5.15 ± 1.35 µM
O=C(O)C(F)(F)F [Trifluoroacetic acid]			1.97 ± 1 µM		IC50 ([4]; listed as trifluoroacetic acid): ≤ 10 µM; Selectivity Index (A549 IC50/A. castellanii IC50) [4]: ≥5.10; IC50 ([2]; Homo sapiens, A549, 72 h, read-out: A549 Mean IC50 (µM)): > 10 µM
CNCC(=O)OCc1cccnc1N(C)C(=O)OC(C)[n+]1cnn(C[C@](O)(c2cc(F)ccc2F)[C@@H](C)c2nc(-c3ccc(C#N)cc3)cs2)c1 (stereo partly drawn) [Isavuconazonium]		> 10 µM			IC50 ([4]; Acanthamoeba castellanii): 0.09 ± 0.02 µM; Selectivity Index (A549 IC50/A. castellanii IC50) [4]: ≥105; Selectivity Index (A549 IC50/A. castellanii IC50) ([4]; listed as isavuconazonium): ≥ 10; potency against A. castellanii, in words [4]: nanomolar potency
CCC(C)(C)c1ccc(CC(C)CN2C[C@@H](C)O[C@@H](C)C2)cc1 (stereo partly drawn) [Amorolfine]		> 10 µM	1.63 ± 1.62 µM		IC50 ([4]; listed as amorolfine): ≤ 10 µM; Selectivity Index (A549 IC50/A. castellanii IC50) [4]: ≥6.13

Reference: PMC7344389, “Discovery of Anti-Amoebic Inhibitors from Screening the MMV Pandemic Response Box on Balamuthia mandrillaris, Naegleria fowleri, and Acanthamoeba castellanii” (Pathogens, 2020)
